This experiment deals with T1, DPP-IV (Homo sapiens, UniProt P27487).
T1 construct: Soluble human DPP-IV lacking the transmembrane anchor (Gly31-Pro766); Pre-Pro-alpha-mating factor leader (secretion signal) (N, cleaved yes); made in house
Briefly: Inhibition of DPP-IV peptidase activity, continuous fluorimetric assay (Gly-Pro-AMC cleavage). Type of experiment: biochemical. Particulars: 16 μM Gly-Pro-AMC, pH 7.4, 25° C., 1% DMSO. The protocol: Inhibition of DPP-IV peptidase activity was monitored with a continuous fluorimetric assay. This assay is based on the cleavage of the substrate Gly-Pro-AMC (Bachem) by DPP-IV, releasing free AMC. The assay is carried out in 96-well microtiterplates. In a total volume of 100 μL, compounds are preincubated with […] employing a buffer containing 10 mM Hepes, 150 mM NaCl, 0.005% Tween 20 (pH 7.4). […] The final concentration of DMSO is 1%. The inhibitory potential of the compounds were determined.
Soluble human DPP-IV lacking the transmembrane anchor (Gly31-Pro766) was expressed in a recombinant YEAST-strain as Pre-Pro-alpha-mating fusion.

Molecules are shown by their SMILES.

T1 sequence (P27487 31-766): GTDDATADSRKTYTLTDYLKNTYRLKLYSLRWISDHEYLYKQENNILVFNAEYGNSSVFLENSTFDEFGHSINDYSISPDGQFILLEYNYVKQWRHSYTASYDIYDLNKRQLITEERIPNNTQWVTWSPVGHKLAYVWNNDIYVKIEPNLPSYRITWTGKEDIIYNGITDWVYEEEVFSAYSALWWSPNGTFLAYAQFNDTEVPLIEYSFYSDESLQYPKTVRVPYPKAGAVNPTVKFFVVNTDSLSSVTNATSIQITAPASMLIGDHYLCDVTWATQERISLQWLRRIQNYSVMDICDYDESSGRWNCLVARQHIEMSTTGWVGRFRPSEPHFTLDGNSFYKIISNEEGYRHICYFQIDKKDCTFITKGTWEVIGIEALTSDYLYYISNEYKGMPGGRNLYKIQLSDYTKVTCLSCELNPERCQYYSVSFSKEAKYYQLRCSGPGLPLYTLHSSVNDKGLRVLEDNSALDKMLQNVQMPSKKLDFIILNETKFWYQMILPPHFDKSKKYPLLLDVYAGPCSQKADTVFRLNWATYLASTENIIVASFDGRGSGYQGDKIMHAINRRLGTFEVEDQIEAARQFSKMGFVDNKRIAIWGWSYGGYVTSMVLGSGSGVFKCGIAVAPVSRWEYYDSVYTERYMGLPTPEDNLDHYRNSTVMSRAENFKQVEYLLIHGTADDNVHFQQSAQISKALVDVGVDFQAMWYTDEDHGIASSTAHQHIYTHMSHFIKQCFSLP

One may read the IC50 as the concentration at which inhibition is half-maximal. Low readings indicate higher potency, high ones lower potency. `N[C@@H](CC(=O)N1CC(CNC(=O)c2ccccc2)C1)Cc1ccccc1F` [Example 90, N-{1-[(3R)-Amino-4-(2-fluoro-phenyl)-butyryl]-azetidin-3-ylmethyl}-benzamide] returned an IC50 of 101 to 1000 nM.
Next, `N[C@@H](CC(=O)N1CC(CNS(=O)(=O)c2ccccc2)C1)Cc1ccccc1F` [Example 91, N-{1-[3-Amino-4-(2-fluoro-phenyl)-butyryl]-azetidin-3-ylmethyl}-benzenesulfonamide]: 101 to 1000 nM; `N[C@@H](CC(=O)N1CC(COc2ccccc2)C1)Cc1ccccc1F` [Example 92, 3-Amino-4-(2-fluoro-phenyl)-1-(3-phenoxymethyl-azetidin-1-yl)-butan-1-one]: 1000 to 2000 nM; `N[C@@H](CC(=O)N1CC(COc2ccccn2)C1)Cc1ccccc1F` [Example 93]: 1000 to 2000 nM.
In turn, `N[C@@H](CC(=O)N1CCC[C@H]1CNc1nc(-c2ccccc2)no1)Cc1ccccc1F` [Example 100, (3R)-Amino-4-(2-fluorophenyl)-1-{(2S)-[(3-phenyl-[1,2,4]oxadiazol-5-ylamino)-methyl]-pyrrolidin-1-yl}butan-1-one] yielded a concentration for half-maximal inhibition (IC50) of 101 to 1000 nM.
Next, `N[C@@H](CC(=O)N1CCC[C@H]1CNc1nc(-c2ccccn2)no1)Cc1ccccc1F` [Example 101, (3R)-Amino-4-(2-fluorophenyl)-1-{(2 S)-[(3-pyridin-2-yl-[1,2,4]oxadiazol-5-ylamino)-methyl]-pyrrolidin-1-yl}-butan-1-one]: < 100 nM.
On to `N[C@@H](CC(=O)N1CCC[C@H]1CNc1nc(-c2cccc(Cl)c2)no1)Cc1ccccc1F` [Example 102], for which the 50% inhibitory concentration (IC50) is < 100 nM.
With `N[C@@H](CC(=O)N1CCC[C@H]1CNc1nc(-c2cccc(F)c2)no1)Cc1ccccc1F` [Example 103, (3R)-Amino-4-(2-fluorophenyl)-1-((2S)-{[3-(3-fluorophenyl)-[1,2,4]oxadiazol-5-ylamino]-methyl}-pyrrolidin-1-yl)-butan-1-one], the IC50 was in the range of 1000 to 2000 nM.
Turning to `CS(=O)(=O)c1ccc(-c2noc(NC[C@@H]3CCCN3C(=O)C[C@H](N)Cc3ccccc3F)n2)cc1` [Example 104, (3R)-Amino-4-(2-fluorophenyl)-1-((2S)-{[3-(4-methanesulphonylphenyl)-[1,2,4]oxadiazol-5-ylamino]-methyl}-pyrrolidin-1-yl)-butan-1-one], the IC50 was < 100 nM.

For the origin of these results see patent publication US20080027035A1, “Dpp-Iv Inhibitors” (GRAFFINITY PHARMACEUTICALS AG, priority 2003, published 2008).
